Measured values as given in patent US20150141381A1, “TETRACYCLINE COMPOUNDS HAVING TARGET THERAPEUTIC ACTIVITIES” (Paratek Pharmaceuticals, Inc., priority 2001, published 2015).
Read-outs that look alike come from different tables or passages of the source.

Tests used:
S. aureus RN450 = assay: In Vitro Anti-Bacterial Activity Assay (MIC), gram positive; type: cell-based; conditions: Staphylococcus aureus, RN450, 18 h
E. coli mL308 225 = assay: In Vitro Anti-Bacterial Activity Assay (MIC), gram negative; type: cell-based; conditions: Escherichia coli, ML308225, 18 h
[1] = MIC class, Table 3, read-out: Antibiotic Activity Gram +
[2] = MIC class, Table 3, read-out: Antibiotic Activity Gram −
[3] = gram positive bacteria, read-out: Antibiotic Activity Gram + (MIC)
[4] = gram negative bacteria, read-out: Antibiotic Activity Gram − (MIC)
[5] = MIC class, Table 3 (Continued), read-out: Gram+ activity
[6] = MIC class, Table 3 (Continued), read-out: Gram− activity

Compound | MIC (S. aureus RN450; [1]) | MIC (E. coli mL308 225; [2]) | MIC (S. aureus RN450; [3]) | MIC (E. coli mL308 225; [4]) | further results
CCc1ccc(-c2cc(N(C)C)c3c(c2O)C(=O)C2=C(O)[C@]4(O)C(=O)C(C(N)=O)=C(O)[C@@H](N(C)C)[C@@H]4C[C@@H]2C3)cc1 [EJ] | < 4 µg/mL | > 4 µg/mL |  |  | 
COc1ccc(C=O)cc1-c1ccc(O)c2c1C[C@H]1C[C@H]3[C@H](N(C)C)C(O)=C(C(N)=O)C(=O)[C@@]3(O)C(O)=C1C2=O [BC] | < 4 µg/mL | < 4 µg/mL |  |  | 
CN(C)[C@@H]1C(O)=C(C(N)=O)C(=O)[C@@]2(O)C(O)=C3C(=O)c4c(O)ccc(-c5ccc(CNC#N)cc5)c4C[C@H]3C[C@@H]12 |  |  | < 4 µg/mL | < 4 µg/mL | 
Cc1noc(C)c1S(=O)(=O)NCc1cc(N(C)C)c2c(c1O)C(=O)C1=C(O)[C@]3(O)C(=O)C(C(N)=O)=C(O)[C@@H](N(C)C)[C@@H]3C[C@@H]1C2 |  |  | < 4 µg/mL | > 4 µg/mL | 
CN(C)[C@@H]1C(OCc2ccccc2)=C(C(N)=O)C(=O)[C@@]2(O)C(O)=C3C(=O)c4c(O)ccc(I)c4C[C@H]3C[C@@H]12 |  |  | < 4 µg/mL | < 4 µg/mL | 
C[C@H]1c2ccc(CN3CCC(F)(F)CC3)c(O)c2C(=O)C2=C(O)[C@]3(O)C(=O)C(C(N)=O)=C(O)[C@@H](N(C)C)[C@@H]3[C@@H](O)[C@@H]21 |  |  | < 4 µg/mL | < 4 µg/mL | 
CN(C)[C@@H]1C(O)=C(C(N)=O)C(=O)[C@@]2(O)C(O)=C3C(=O)c4c(O)c(NC(=O)OCC(C)(C)C)cc(CN)c4C[C@H]3C[C@@H]12 [HP] | > 4 µg/mL | > 4 µg/mL |  |  | 
CN(C)[C@@H]1C(O)=C(C(N)=O)C(=O)[C@@]2(O)C(O)=C3C(=O)c4c(O)ccc(CNC(=O)OCC(C)(C)C)c4C[C@H]3C[C@@H]12 [FU] | < 4 µg/mL | > 4 µg/mL |  |  | 
CN(C)[C@@H]1C(O)=C(C(N)=O)C(=O)[C@@]2(O)C(O)=C3C(=O)c4c(O)ccc(-c5ccc(CO)cc5)c4C[C@H]3C[C@@H]12 |  |  | < 4 µg/mL | < 4 µg/mL | 
CN(C)[C@@H]1C(O)=C(C(N)=O)C(=O)[C@@]2(O)C(O)=C3C(=O)c4c(O)ccc(-c5ccc(C(=O)O)cc5)c4C[C@H]3C[C@@H]12 [BN] | < 4 µg/mL | > 4 µg/mL |  |  | 
CCc1cc(-c2ccc(N(C)C)cc2)c2c(c1O)C(=O)C1=C(O)[C@]3(O)C(=O)C(C(N)=O)=C(O)[C@@H](N(C)C)[C@@H]3C[C@@H]1C2 |  |  | < 4 µg/mL | < 4 µg/mL | 
COc1ccc(-c2ccc(O)c3c2C[C@H]2C[C@H]4[C@H](N(C)C)C(O)=C(C(N)=O)C(=O)[C@@]4(O)C(O)=C2C3=O)c(OC)c1OC [JM] | < 4 µg/mL | > 4 µg/mL |  |  | 
COCCOC(=O)Nc1ccc(-c2ccc(O)c3c2C[C@H]2C[C@H]4[C@H](N(C)C)C(O)=C(C(N)=O)C(=O)[C@@]4(O)C(O)=C2C3=O)cc1 [HH] | < 4 µg/mL | > 4 µg/mL |  |  | 
COc1ccc(/C=C/c2ccc(O)c3c2C[C@H]2C[C@H]4[C@H](N(C)C)C(O)=C(C(N)=O)C(=O)[C@@]4(O)C(O)=C2C3=O)cc1OC |  |  |  |  | MIC (S. aureus RN450; [5]): < 4 µg/mL; MIC (E. coli mL308 225; [6]): < 4 µg/mL
COc1ccc(-c2ccc3c(c2O)C(=O)C2=C(O)[C@]4(O)C(=O)C(C(N)=O)=C(O)[C@@H](N(C)C)[C@@H]4[C@@H](O)[C@@H]2C3C)cc1 (some centres unmarked) |  |  |  |  | MIC (S. aureus RN450; [5]): < 4 µg/mL; MIC (E. coli mL308 225; [6]): < 4 µg/mL
CN1CCC(Nc2ccc3c(c2O)C(=O)C2=C(O)[C@]4(O)C(=O)C(C(N)=O)=C(O)[C@@H](N(C)C)[C@@H]4C[C@@H]2C3)CC1 |  |  | < 4 µg/mL | > 4 µg/mL | 
CN1CCN(Cc2ccc(-c3ccc(O)c4c3C[C@H]3C[C@H]5[C@H](N(C)C)C(O)=C(C(N)=O)C(=O)[C@@]5(O)C(O)=C3C4=O)cc2)CC1 [MF] | < 4 µg/mL | < 4 µg/mL |  |  | 
CCCCOc1cccc2c1C(=O)C1=C(O)[C@]3(O)C(=O)C(C(N)=O)=C(O)[C@@H](N(C)C)[C@@H]3C[C@@H]1C2 |  |  | > 4 µg/mL | > 4 µg/mL | 
C#CCOC(=O)Nc1ccc2c(c1O)C(=O)C1=C(O)[C@]3(O)C(=O)C(C(N)=O)=C(O)[C@@H](N(C)C)[C@@H]3C[C@@H]1C2 |  |  | < 4 µg/mL | < 4 µg/mL | 
